Source: patent US11701434B2, “Tertiary amino lipidated cationic peptides for nucleic acid delivery” (Nutcracker Therapeutics, Inc., priority 2018, dated 2023)

Legend:
[1] = mRNA encapsulation by Qubit RNA HS dye fluorescence before and after Triton X-100 lysis; assay type: physicochemical; conditions: Fluc mRNA/peptoid formulation, 5:1 mass ratio peptoid:cargo
Description: (§1) In standard formulations, the tertiary amino lipidated and/or PEGylated cationic peptide compound is dissolved in anhydrous ethanol at a concentration of 0.5 mg/mL (for in vitro experiments) or 5 mg/mL (for in vivo experiments). The resulting solutions are stable at room temperature, but should be stored at −20° C. The nucleic acid cargo is dissolved in DNAse or RNAse-free water at a final concentration of 0.2 mg/mL (for in vitro experiments) or 1 mg/mL (for in vivo experiments). These solutions should be stored at −20° C. or at −78° C. for longer time periods. To prepare nanoparticle formulations, the tertiary amino lipidated and/or PEGylated cationic peptide compound is mixed by pipetting with nucleic acid at a mass ratio between approximately 1:1 (peptide compound:cargo) and 20:1. Prior to formulation, tertiary amino lipidated and/or PEGylated cationic peptide compounds and cargo (such as nucleic acid) are diluted in ethanol and acidic buffer (PBS adjusted to pH 5.5 with 0.1 M HCl) respectively to a volume ratio of 1:3 and to target a final cargo concentration of approximately 0.05 mg/mL to 0.2 mg/mL. The exemplary amino lipidated cationic peptoids 1-36 described in Example 2 were combined with firefly luciferase (Flue) mRNA to form nanoparticle compositions to be evaluated for therapeutic and/or prophylactic purposes in vitro or in vivo. The formulations were prepared according to the protocol of Example 3 and mixed by simple pipetting. The mRNA/peptoid formulation at a 5:1 mass ratio of peptoid:cargo were evaluated by dynamic light scattering (DLS) in order to determine the volume average particle size/diameter (nm) of the mRNA/peptoid complex and the size polydispersity index (PDI) within the formulation. The percentage of mRNA encapsulation for each formulation of the exemplary compounds were determined by fluorescence of the Qubit RNA HS (Invitrogen) dye before and after lysis of particles by Triton X-100.

[2] = Dynamic light scattering (DLS) of Fluc mRNA/peptoid formulations: particle size and polydispersity; assay type: physicochemical; conditions: 5:1 mass ratio peptoid:cargo; for Size (volume average particle size/diameter): Fluc mRNA/peptoid complex; for Size PDI (size polydispersity index): Fluc mRNA/peptoid formulation
Description: as §1

SMILES	% Encapsulation (percentage of mRNA encapsulation) [1] [%]	Size (volume average particle size/diameter) [2] [nm]	Size PDI (size polydispersity index) [2]
CCCCCCCCCCN(CC(N)=O)C(=O)CN(CCCCCCCCCC)C(=O)CN(CCCCCCCCCC)C(=O)CN(CCCCCCCCCC)C(=O)CN(CCCCCCCCCC)C(=O)CN(CCc1ccccc1)C(=O)CN(CCc1ccccc1)C(=O)CN(CCN)C(=O)CN(CCc1ccccc1)C(=O)CN(CCc1ccccc1)C(=O)CNCCN [Compound 20]	72.2	326.6	0.37
CCCCCCCCCCCCN(CC(N)=O)C(=O)CN(CCCCCCCCCCCC)C(=O)CN(CCc1ccc(OC)cc1)C(=O)CN(CCc1ccc(OC)cc1)C(=O)CN(CCN)C(=O)CN(CCc1ccc(OC)cc1)C(=O)CN(CCc1ccc(OC)cc1)C(=O)CN(CCN)C(=O)CN(CCc1ccc(OC)cc1)C(=O)CN(CCc1ccc(OC)cc1)C(=O)CNCCN [Compound 4]	99.0	326.7	0.191
CCCCCCCCCCN(CC(N)=O)C(=O)CN(CCCCCCCCCC)C(=O)CN(CCCCCCCCCC)C(=O)CN(CCCCCCCCCC)C(=O)CN(CCc1ccccc1)C(=O)CN(CCc1ccccc1)C(=O)CN(CCNC)C(=O)CN(CCc1ccccc1)C(=O)CN(CCc1ccccc1)C(=O)CN(CCNC)C(=O)CN(CCc1ccccc1)C(=O)CN(CCc1ccccc1)C(=O)CNCCNC [Compound 25]	8.4	773.3	0.021
CCCCCCCCCCN(CC(N)=O)C(=O)CN(CCCCCCCCCC)C(=O)CN(CCN)C(=O)CN(CCN)C(=O)CN(CCN)C(=O)CN(CCN)C(=O)CN(CCN)C(=O)CN(CCN)C(=O)CN(CCN)C(=O)CN(CCN)C(=O)CNCCN [Compound 16]	85.4	1486	1
CCCCCCCCCCCCCCCCCCN(CC(N)=O)C(=O)CN(CCCCCCCCCCCCCCCCCC)C(=O)CN(CCc1ccccc1)C(=O)CN(CCc1ccccc1)C(=O)CN(CCN)C(=O)CN(CCc1ccccc1)C(=O)CN(CCc1ccccc1)C(=O)CN(CCN)C(=O)CN(CCc1ccccc1)C(=O)CN(CCc1ccccc1)C(=O)CNCCN [Compound 5]	88.3	364.7	0.308

Results, then the compound that gave them:

% Encapsulation (percentage of mRNA encapsulation) [1] [%]	Size (volume average particle size/diameter) [2] [nm]	Size PDI (size polydispersity index) [2]	SMILES
90.1	356.9	0.047	CCCCCCCCN(CC(N)=O)C(=O)CN(CCCCCCCC)C(=O)CN(CCc1ccccc1)C(=O)CN(CCc1ccccc1)C(=O)CN(CCN)C(=O)CN(CCc1ccccc1)C(=O)CN(CCc1ccccc1)C(=O)CN(CCN)C(=O)CN(CCc1ccccc1)C(=O)CN(CCc1ccccc1)C(=O)CNCCN [Compound 1]
88.4	296.7	0.177	CCCCCCCCCCN(CC(N)=O)C(=O)CN(CCCCCCCCCC)C(=O)CN(CCCCCCCCCC)C(=O)CN(CCc1ccccc1)C(=O)CN(CCc1ccccc1)C(=O)CN(CCN)C(=O)CN(CCc1ccccc1)C(=O)CN(CCc1ccccc1)C(=O)CN(CCN)C(=O)CN(CCc1ccccc1)C(=O)CN(CCc1ccccc1)C(=O)CNCCN [Compound 7]
95.9	255.3	0.247	CCCCCCCCCCCCN(CC(N)=O)C(=O)CN(CCCCCCCCCCCC)C(=O)CN(CCc1ccccc1)C(=O)CN(CCc1ccccc1)C(=O)CN(CCN)C(=O)CN(CCc1ccccc1)C(=O)CN(CCc1ccccc1)C(=O)CN(CCN)C(=O)CN(CCc1ccccc1)C(=O)CN(CCc1ccccc1)C(=O)CNCCN [Compound 3]
100.3	150	0.128	CCCCCCCCCCN(CC(N)=O)C(=O)CN(CCCCCCCCCC)C(=O)CN(CCc1ccccc1)C(=O)CN(CCc1ccccc1)C(=O)CN(CCN)C(=O)CN(CCc1ccccc1)C(=O)CN(CCc1ccccc1)C(=O)CN(CCN)C(=O)CN(CCc1ccccc1)C(=O)CN(CCc1ccccc1)C(=O)CNCCN [Compound 2]
8.4	282.8	0.455	CCCCCCCCCCN(CC(N)=O)C(=O)CN(CCCCCCCCCC)C(=O)CN(CCc1ccccc1)C(=O)CN(CCc1ccccc1)C(=O)CN(CCCN)C(=O)CN(CCc1ccccc1)C(=O)CN(CCc1ccccc1)C(=O)CN(CCCN)C(=O)CN(CCc1ccccc1)C(=O)CN(CCc1ccccc1)C(=O)CNCCCN [Compound 30]
